Source: the supplement of paper PMC11208160

Assay: recombinant UMI read abundance after kanamycin selection (control-corrected) (log10(CPM+1)); higher = more efficient recombination; extreme values may be limits of the assay; sequences stand for … in AGTGCAGAGAAAATCGGCCAGTTTTCTCTGCCTGCAGTCCGCATGCCGTGGGACCCCTTGGGTTCTAACCTGTTGCCTAGATTTATGCAGCGGACTGCCTTTCTCCCAAAGTGATAAACCGG…AGGTTGGTTTCACT; site = the 11-nt donor
Outline: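 In Escherichia coli, a pool of donor and donor-binding-loop pairs, each with a 12-nt UMI, was tested for the IS621 bridge recombinase. Plating was on IPTG (0.07 mM) plus kanamycin, or without selection, in two replicates. Recombinant UMIs were amplified by PCR across the donor–target junction and sequenced, and counts were reported as log10(CPM+1) after averaging and control-derived scaling.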
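Further: IS621 bridge recombinase in Escherichia coli cells against a fixed T5 target plasmid.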

Sequence	recombinant UMI read abundance (log10)
CCATATGCATGGACCGGTTTTCCCGGTAATCCGTATTTGGC (site CCATATGCTGC)	0.0195
CCATCGCCATGGACCGGTTTTCCCGGTAATCCGTATTTGGA (site CCATCGCCTTC)	0.0195
CCATGGTCATGGACCGGTTTTCCCGGTAATCCGTATTTGTT (site CCATGGTCTAA)	1.06
CCATTATCATGGACCGGTTTTCCCGGTAATCCGTATTTGCA (site ACAGTATCTTG)	0
CCATTATCATGGACCGGTTTTCCCGGTAATCCGTATTTGCA (site CCATTATCTTG)	0.785
CCATTCCCATGGACCGGTTTTCCCGGTAATCCGTATTTGCT (site CAATTCCCTAG)	0
CCATTCCCATGGACCGGTTTTCCCGGTAATCCGTATTTGCT (site CCATTCCCTAG)	0
CCATTCCCATGGACCGGTTTTCCCGGTAATCCGTATTTGCT (site CGATTCCCTAG)	0
CCATTCCCATGGACCGGTTTTCCCGGTAATCCGTATTTGCT (site CTATTCCCTAG)	0
CCATTCTCATGGACCGGTTTTCCCGGTAATCCGTATTTGTA (site CCATTCTCTTA)	0.451
CCCAACACATGGACCGGTTTTCCCGGTAATCCGTATTTGTA (site CCCAACACTTA)	1.35
CCCAACACATGGACCGGTTTTCCCGGTAATCCGTATTTGTA (site CCCCACACTTA)	0.0125
CCCAACACATGGACCGGTTTTCCCGGTAATCCGTATTTGTA (site CCCGACACTTA)	0.0265
CCCAACACATGGACCGGTTTTCCCGGTAATCCGTATTTGTA (site CCCTACACTTA)	0.00893
CCCAACCCATGGACCGGTTTTCCCGGTAATCCGTATTTGAT (site CCCAACCCTAT)	0.00723
CCCAAGTCATGGACCGGTTTTCCCGGTAATCCGTATTTGGG (site CCCAAGTCTCC)	2.38
CCCAATTCATGGACCGGTTTTCCCGGTAATCCGTATTTGCC (site ACCAATTCTGG)	0
CCCAATTCATGGACCGGTTTTCCCGGTAATCCGTATTTGCC (site CCCAATTCTGG)	0.628
CCCAATTCATGGACCGGTTTTCCCGGTAATCCGTATTTGCC (site GCCAATTCTGG)	0

Sequence	recombinant UMI read abundance (log10)
CCCAATTCATGGACCGGTTTTCCCGGTAATCCGTATTTGCC (site TCCAATTCTGG)	0
CCCACCGCATGGACCGGTTTTCCCGGTAATCCGTATTTGCG (site ACCACCGCTCG)	0.0127
CCCACCGCATGGACCGGTTTTCCCGGTAATCCGTATTTGCG (site CCCACCGCTCG)	0.00466
CCCACCGCATGGACCGGTTTTCCCGGTAATCCGTATTTGCG (site GCCACCGCTCG)	0.0563
CCCACCGCATGGACCGGTTTTCCCGGTAATCCGTATTTGCG (site TCCACCGCTCG)	0.00493
CCCACGCCATGGACCGGTTTTCCCGGTAATCCGTATTTGTA (site ACCACGCCTTA)	0.00406
CCCACGCCATGGACCGGTTTTCCCGGTAATCCGTATTTGTA (site CCCACGCCTTA)	0.00594
CCCACGCCATGGACCGGTTTTCCCGGTAATCCGTATTTGTA (site GCCACGCCTTA)	0.00718
CCCACGCCATGGACCGGTTTTCCCGGTAATCCGTATTTGTA (site TCCACGCCTTA)	0.0141
CCCAGATCATGGACCGGTTTTCCCGGTAATCCGTATTTGTC (site CCCAAATCTGA)	0
CCCAGATCATGGACCGGTTTTCCCGGTAATCCGTATTTGTC (site CCCACATCTGA)	0
CCCAGATCATGGACCGGTTTTCCCGGTAATCCGTATTTGTC (site CCCAGATCTGA)	0
CCCAGATCATGGACCGGTTTTCCCGGTAATCCGTATTTGTC (site CCCATATCTGA)	0
CCCATAACATGGACCGGTTTTCCCGGTAATCCGTATTTGTC (site CCCATAACTGA)	0
CCCATAACATGGACCGGTTTTCCCGGTAATCCGTATTTGTC (site CCCATACCTGA)	0
CCCATAACATGGACCGGTTTTCCCGGTAATCCGTATTTGTC (site CCCATAGCTGA)	0
CCCATAACATGGACCGGTTTTCCCGGTAATCCGTATTTGTC (site CCCATATCTGA)	0
CCCATACCATGGACCGGTTTTCCCGGTAATCCGTATTTGTC (site CCCATAACTGA)	0
CCCATACCATGGACCGGTTTTCCCGGTAATCCGTATTTGTC (site CCCATACCTGA)	0
